{"source": "patent US20250032411A1", "about": "“A SELF-EMULSIFYING DRUG DELIVERY SYSTEM (SEDDS) OF PUNICIC ACID COMBINED WITH NEUROPROTECTIVE NATURAL PRODUCTS TO DELAY ONSET, PREVENT, OR REVERSE NEURODEGENERATIVE DISEASE” (TAHIRO INC., priority 2021, published 2025)", "key": {"[1]": {"test_system": "old mice", "settings": "chronic low dose, 3 mg per kg bodyweight per day; cited from earlier work"}, "[2]": {"test_system": "C57BL6 mice", "experiment": "Y-maze Test of MK-801 induced cognitive decline", "type": "in vivo", "settings": "N=12 per group, random = 33%", "procedure": "The effect of pomegranate-CBD based formulation with a 12:1 pomegranate to CBD ratio on cognitive decline was further evaluated in C57BL6 mice. The cognitive decline of the mice was achieved using MK-801 and the cognitive ability of the mice were tested using the Y-maze Test. The experiment included three groups of mice, neutral control (N=12), MK-801 (N=12), MK-801 Pomegranate-CBD treated (N=12)."}, "[3]": {"test_system": "Parkinson's disease patients", "settings": "18 g per day oral, cited from earlier work"}, "[4]": {"molecular_target": "alfa-synuclein (Homo sapiens, UniProt P37840)", "settings": "in vitro; cited from earlier work"}, "[5]": {"test_system": "Drosophila model of Parkinson's Disease", "settings": "fly feeding, 75 mM in medium; cited from earlier work"}, "[6]": {"test_system": "mThyl-human alpha-synuclein transgenic mouse model", "settings": "1 g/kg/day interperitoneally; cited from earlier work"}}, "data": [{"smiles": "CCCCCc1cc(O)c2c(c1)OC(C)(C)[C@@H]1CCC(C)=C[C@@H]21", "note": "[THC, Δ9-tetrahydrocannabinol]", "values": [{"measurement": "cognitive function", "setting": "[1]", "value": "restores cognitive function in old mice"}]}, {"smiles": "C[C@]12N[C@H](Cc3ccccc31)c1ccccc12", "note": "[MK-801]", "values": [{"measurement": "% of entries in the novel arm of the Y-maze", "setting": "[2]", "value": 31.8, "unit": "%"}]}, {"smiles": "OC[C@@H](O)[C@@H](O)[C@H](O)[C@H](O)CO", "note": "[Mannitol]", "values": [{"measurement": "patients who tolerate the maximal dose", "setting": "[3]; 36 weeks", "value": "only two thirds of patients tolerate this maximal dose"}, {"measurement": "safety of long-term use", "setting": "[3]", "value": "safe"}, {"measurement": "aggregation process of alfa-synuclein", "setting": "[4]", "value": "interfere with the aggregation process of alfa-synuclein"}, {"measurement": "alpha-synuclein aggregates in the brains", "setting": "[5]", "value": "reduced the amount of alpha-synuclein aggregates"}, {"measurement": "behavioral defects", "setting": "[5]", "value": "dramatically corrected behavioral defects"}, {"measurement": "alpha-synuclein accumulation in brain regions", "setting": "[6]", "value": "a decrease in alpha-synuclein accumulation was detected in several brain regions"}]}]}
